How the values were obtained:
[1] = Measurement of the isoelectric point of the synthesized peptides; assay type: physicochemical; details: synthesized peptide
Description: Among antimicrobial peptides, hBD2 (human P-defensin-2 (see Eur J., 2002, Oral Sci. (109), 121-124)) is well known as a basic antimicrobial peptide, and has an isoelectric point of about 10. However, the isoelectric points of Kog1 and Kog2 of the embodiment 2 were higher than the isoelectric point of hBD2, and more similar to the isoelectric points of antimicrobial peptides derived from mammals. Thus, Kog1 and Kog2 were confirmed to have less cytotoxicity.

[2] = test system: Candida albicans GDH18 strain; experiment: Antimicrobial activity (CFU count, percentage of living cells) against Candida albicans GDH18; assay type: cell-based; details: 37° C., 90 minutes, 1 mM phosphate buffer
Description: As the Candida, cariogenic bacteria and periodontal disease bacteria, the Candida albicans GDH18 strain, Streptococcus sobrinus B-13 strain, Streptococcus mutans NCTC10449 strain, Streptococcus mutans Ingbritt strain, Porphyromonas gingivalis Hudoi001 strain and Aggregatibacter actinomycetemcomitans Hudoe001 strain were used. The test strains were provided from Faculty of Dentistry, Hiroshima University, Japan, and Hiroshima University Dental Hospital.
(§1) The Candida albicans GDH18 strain was precultured using SD medium (Difco) at 37° C. for 24 hours under aerobic conditions. The Streptococcus sobrinus B-13 strain, Streptococcus mutans NCTC10449 strain and Streptococcus mutans Ingbritt strain were precultured using TSB medium (Difco) supplemented with 5% yeast extract (Difco) at 37° C. for 24 hours under aerobic conditions. The Porphyromonas gingivalis Hudoi001 strain and Aggregatibacter actinomycetemcomitans Hudoe001 strain were precultured using BHI medium (Difco) supplemented with hemin (5 mg/L) and vitamin K3 (1 mg/L) at 37° C. for 96 hours under anaerobic conditions with Anaero Pack System (Mitsubishi Gas Chemical Company, Inc.).
(§2) After the culture, the cells of the Candida, cariogenic bacteria and periodontal disease bacteria were collected by centrifugation at 1000×g, and washed twice with 1 mM phosphate buffer (pH 6.8). The cells were then suspended such that the final concentration was 1×10^8 cfu/ml or 1×10^7 cells/m. For suspension of the Streptococcus strains, ultrasonic treatment was also carried out.
(§3) Evaluation of the antimicrobial activity was carried out by the method by Edgerton and others (1998) with some modifications. With 20 mL of 1 mM phosphate buffer containing 0 to 25 μM Kog1 or Kog2 synthesized in Example 1, 20 μl of the suspension of the Candida albicans GDH18 strain cultured and prepared by the method described in the above Preparation Example was mixed, and the resulting mixture was incubated at 37° C. for 90 minutes with shaking. As a control, 20 ml of 1 mM phosphate buffer alone was used. The reaction was stopped by addition of 360 ml of YNB medium (Difco), and the number of colonies formed (colony forming units; CFUs) was counted together with the number of colonies in the control, to determine the percentage of living bacterial cells. That is, the equation of: (CFUs of suspension containing Kog1 or Kog2/CFU ml^−1 of control suspension)×100 was used to calculate the percentage.

[3] = test system: Streptococcus sobrinus B-13 strain; experiment: Antimicrobial activity against Streptococcus sobrinus B-13; assay type: cell-based; details: tested 0 to 100 μM
Protocol: [The procedure below names another organism; the source lists this organism under the same test.] as §1, §2
as §3, with “percentage. […]” for “percentage.”

[4] = test system: Streptococcus mutans NCTC10449 strain; experiment: Antimicrobial activity against Streptococcus mutans NCTC10449; assay type: cell-based; details: 0 to 100 μM, FIG. 4
[5] = test system: Streptococcus mutans Ingbritt strain; experiment: Antimicrobial activity against Streptococcus mutans Ingbritt; assay type: cell-based; details: 0 to 100 μM, FIG. 5
[6] = test system: Aggregatibacter actinomycetemcomitans Hudoe001 strain; experiment: Antimicrobial activity against Aggregatibacter actinomycetemcomitans Hudoe001; assay type: cell-based; details: tested 0 to 50 μM
[7] = test system: Candida albicans MYA274 strain; experiment: Boiling experiment: antimicrobial activity (ATP) against Candida albicans MYA274; assay type: cell-based; details: concluded from supernatant boiled at 100° C. for 20 minutes; peptides not directly used
Protocol: In Example 9, antimicrobial activity against the Candida albicans MYA274 strain was investigated. The Candida albicans MYA274 strain was precultured in Sabouraud dextrose broth (Difco) at 37° C. for 24 hours, and then washed twice with MQ water, followed by being prepared such that OD600 is 0.3 (1.0×10^7 cells/ml).
In Example 9, the bacteriocin Kog1 or Kog2, or the Lactobacillus rhamnosus KO1 strain or KO3 strain, was not directly used. Instead, a lactic acid bacterium medium containing the Lactobacillus rhamnosus KO3 strain, 8020 yogurt (liquid type), was used in the experiment More specifically, the 8020 yogurt (liquid type) was prepared by adding the Lactobacillus rhamnosus KO3 strain at a concentration of 1% and YF-L811 starter at a concentration of 1% to the 15% skim milk+3% glucose medium, and then performing culture at 35° C. for 2 days.
Such 8020 yogurt (liquid type) was centrifuged to obtain a supernatant from which the lactic acid bacterium was removed (hereinafter referred to as Supernatant B). In the experiment, Supernatant B and a sample prepared by boiling Supernatant B at 100° C. for 20 minutes (hereinafter referred to as Supernatant Boil) were used. […]
In order to study changes in the antimicrobial activity by boiling, the following 3 kinds of samples were placed in a 24-well plate, and the value of ATP (pmol/L) after 24 hours of incubation at 37° C. was measured. […]

Kog2: peptide having the amino acid sequence shown in SEQ ID NO: 2, bacteriocin of Lactobacillus rhamnosus, synthesized by the tea-bag method (MTKVRSSRLRPLTLRLLSAPARAQFLTIACRAILRYDLINS; listed as Lactobacillus rhamnosus)
isoelectric point (pl) [1]: 12.38
peptide concentration at which 100% of the strain was killed [2]: 0.39 µM
peptide concentration at which 100% of the strain was killed [3]: 0.39 µM
antimicrobial activity compared to the other antimicrobial peptides (hBD2, lysozyme) [4]: capable of killing a larger amount of Streptococcus mutans even at relatively low peptide concentration
antimicrobial activity compared to the other antimicrobial peptides (hBD2, lysozyme) [5]: capable of killing a larger amount of Streptococcus mutans even at relatively low peptide concentration
peptide concentration at which 100% of the strain was killed [6]: 1.56 µM
heat resistance (antimicrobial activity after heating) [7]: still maintain antimicrobial activity after heating

From patent US9314498B2, “Bacteriocin derived from Lactobacillus rhamnosus” (priority 2011, dated 2016)
